Test results from article PMC4490784, “Compensatory induction of MYC expression by sustained CDK9 inhibition via a BRD4-dependent mechanism” (eLife, 2015).

Tests used:
CDK9-CycT1 [1] = target: T1, CDK9-CycT1 (Homo sapiens, UniProt P50750); assay: AlphaScreen-based kinase assay; format: biochemical; set-up: purchased Invitrogen
Description: (§1) The inhibitory activity of i-CDK9 for CDK1-CycB (Upstate/Millipore), CDK2-CycA (Invitrogen), CDK4-CycD1 (Novartis), CDK7-CycH-MAT1 (Invitrogen), and CDK9-CycT1 (Invitrogen) was assessed in the AlphaScreen (PerkinElmer, Inc)-based kinase assay developed at Novartis. Briefly, each CDK–cyclin pair was pre-incubated with i-CDK9 for 15 min, followed by addition of kinase substrates (ELK for CDK1 and CDK2, RB for CDK4, and CDK7tide for CDK7 and CDK9). The mixture was incubated at room temperature for additional 4–5 hr. The reaction was stopped and read on Envision (PerkinElmer, Inc). Selectivity against a large panel of over 400 kinases was evaluated using the KINOMEscan platform (DiscoveRx, CA) employing a proprietary active site-directed competition binding assay ([Fabian et al., 2005]). The assay was conducted at two different concentrations of i-CDK9 (1 and 10 µM) by DiscoveRx.

[2] = target: JAK1(JH2domain-pseudokinase) (Homo sapiens, UniProt P23458); assay: KINOMEscan binding assay; set-up: JAK1(JH2domain-pseudokinase); purchased DiscoveRx KINOMEscan
Description: (§2) As there are no commercial or in-house kinase assays available for CDK3, CDK5, CDK11 and CDK13, the inhibitory abilities of i-CDK9 toward these CDKs were thus evaluated in the DiscoveRx KINOMEscan assay, which is based on a proprietary active site-directed competition-binding platform ([Fabian et al., 2005]).
as §1

CDK9-CycT1 [3] = target: T1, CDK9-CycT1; assay: In vitro kinase reaction with baculovirus-produced recombinant kinase (SignalChem); format: biochemical; set-up: purchased SignalChem; host or cells: baculovirus-produced; settings: 80 nM i-CDK9
CDK9 = CDK9 (Homo sapiens, UniProt P50750); assay: KINOMEscan binding assay; set-up: purchased DiscoveRx KINOMEscan; settings: read-out: % Retention on Solid Support
Description: as §2, §1

IGF1R = target: T2, IGF1R (Homo sapiens, UniProt P08069); assay: biochemical binding or enzymatic assay; settings: Novartis
T2 construct: purchased DiscoveRx KINOMEscan
Outline: (§3)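 Read-out is either kinase activity or binding, whichever suited the target. Values come from titrating i-CDK9 in follow-up testing of KINOMEscan-profiled kinases.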

ALK = target: T3, ALK (Homo sapiens, UniProt Q9UM73); assay: biochemical binding or enzymatic assay; settings: Novartis
T3 construct: purchased DiscoveRx KINOMEscan
Outline: as §3

ZAP70 = target: T4, ZAP70 (Homo sapiens, UniProt P43403); assay: biochemical binding or enzymatic assay
T4 construct: purchased DiscoveRx KINOMEscan
T4 sequence (P43403 1-619): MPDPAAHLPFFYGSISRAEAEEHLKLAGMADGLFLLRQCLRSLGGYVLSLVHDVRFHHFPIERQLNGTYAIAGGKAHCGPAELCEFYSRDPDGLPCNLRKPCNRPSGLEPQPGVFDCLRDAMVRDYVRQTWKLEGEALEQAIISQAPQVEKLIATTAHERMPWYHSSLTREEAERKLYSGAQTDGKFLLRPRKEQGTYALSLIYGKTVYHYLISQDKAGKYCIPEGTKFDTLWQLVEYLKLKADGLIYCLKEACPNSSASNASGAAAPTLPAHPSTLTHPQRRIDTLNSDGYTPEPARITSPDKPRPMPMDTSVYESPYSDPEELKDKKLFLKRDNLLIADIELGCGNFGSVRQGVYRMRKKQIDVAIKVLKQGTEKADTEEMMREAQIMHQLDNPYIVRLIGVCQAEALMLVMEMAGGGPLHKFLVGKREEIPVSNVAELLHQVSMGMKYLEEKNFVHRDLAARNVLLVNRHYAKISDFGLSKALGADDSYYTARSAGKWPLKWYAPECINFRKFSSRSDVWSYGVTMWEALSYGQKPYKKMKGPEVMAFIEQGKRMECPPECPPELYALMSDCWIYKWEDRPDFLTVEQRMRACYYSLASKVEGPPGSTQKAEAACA
Outline: as §3

FGFR2 = target: T5, FGFR2 (Homo sapiens, UniProt P21802); assay: biochemical binding or enzymatic assay; settings: Novartis
T5 construct: purchased DiscoveRx KINOMEscan
Outline: as §3

SRC = target: T6, SRC (Homo sapiens, UniProt P12931); assay: biochemical binding or enzymatic assay; settings: Novartis
T6 construct: purchased DiscoveRx KINOMEscan
Outline: as §3

ERK2 = target: T7, ERK2 (Homo sapiens, UniProt P28482); assay: biochemical binding or enzymatic assay; settings: Novartis
T7 construct: purchased DiscoveRx KINOMEscan
Outline: as §3

CLK1 = target: T8, CLK1 (Homo sapiens, UniProt P49759); assay: biochemical binding or enzymatic assay; settings: Invitrogen
T8 construct: purchased DiscoveRx KINOMEscan
Outline: as §3

S6K1 = S6K1 (Homo sapiens, UniProt P23443); assay: biochemical binding or enzymatic assay; settings: Novartis
Outline: as §3

PKN2 = target: T9, PKN2 (Homo sapiens, UniProt Q16513); assay: biochemical binding or enzymatic assay; settings: Novartis
T9 construct: purchased DiscoveRx KINOMEscan
Outline: as §3

PKN1 = target: T10, PKN1 (Homo sapiens, UniProt Q16512); assay: biochemical binding or enzymatic assay; settings: Novartis
T10 construct: purchased DiscoveRx KINOMEscan
Outline: as §3

IRAK4 = IRAK4 (Homo sapiens, UniProt Q9NWZ3); assay: biochemical binding or enzymatic assay; settings: Novartis
Outline: as §3

T1 sequence (P50750 whole entry): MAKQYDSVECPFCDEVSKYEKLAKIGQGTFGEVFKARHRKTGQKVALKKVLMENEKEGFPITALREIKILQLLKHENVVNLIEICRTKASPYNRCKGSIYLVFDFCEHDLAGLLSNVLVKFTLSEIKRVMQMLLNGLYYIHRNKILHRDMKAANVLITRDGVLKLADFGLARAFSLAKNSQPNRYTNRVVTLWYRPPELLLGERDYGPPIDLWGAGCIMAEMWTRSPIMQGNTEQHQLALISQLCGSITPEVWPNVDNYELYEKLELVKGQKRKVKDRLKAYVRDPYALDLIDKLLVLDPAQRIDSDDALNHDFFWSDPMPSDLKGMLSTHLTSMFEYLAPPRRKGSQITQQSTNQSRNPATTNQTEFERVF
T1 sequence (O60563 whole entry partner): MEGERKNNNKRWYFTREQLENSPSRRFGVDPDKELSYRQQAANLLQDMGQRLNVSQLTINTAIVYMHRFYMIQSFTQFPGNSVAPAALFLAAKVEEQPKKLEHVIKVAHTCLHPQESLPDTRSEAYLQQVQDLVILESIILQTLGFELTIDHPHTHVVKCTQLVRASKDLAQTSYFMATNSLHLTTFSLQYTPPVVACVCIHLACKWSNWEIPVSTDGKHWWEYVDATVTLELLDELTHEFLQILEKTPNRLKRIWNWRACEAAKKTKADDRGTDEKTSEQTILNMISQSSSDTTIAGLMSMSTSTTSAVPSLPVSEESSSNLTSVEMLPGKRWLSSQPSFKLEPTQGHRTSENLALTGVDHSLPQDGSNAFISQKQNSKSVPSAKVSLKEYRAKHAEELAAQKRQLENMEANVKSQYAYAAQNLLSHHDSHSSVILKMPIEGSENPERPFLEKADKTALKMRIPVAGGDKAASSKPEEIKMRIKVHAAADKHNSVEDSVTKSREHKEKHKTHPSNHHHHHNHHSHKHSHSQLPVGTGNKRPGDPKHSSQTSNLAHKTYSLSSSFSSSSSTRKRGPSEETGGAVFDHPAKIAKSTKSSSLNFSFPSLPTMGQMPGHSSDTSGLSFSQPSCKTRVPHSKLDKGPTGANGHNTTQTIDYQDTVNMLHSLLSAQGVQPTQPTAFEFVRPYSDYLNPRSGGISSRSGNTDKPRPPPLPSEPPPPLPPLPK
Chain of CDK9 (P50750 whole entry): as the sequence (P50750 whole entry) above
Chain of JAK1(JH2domain-pseudokinase) (P23458 561-860 limits assumed): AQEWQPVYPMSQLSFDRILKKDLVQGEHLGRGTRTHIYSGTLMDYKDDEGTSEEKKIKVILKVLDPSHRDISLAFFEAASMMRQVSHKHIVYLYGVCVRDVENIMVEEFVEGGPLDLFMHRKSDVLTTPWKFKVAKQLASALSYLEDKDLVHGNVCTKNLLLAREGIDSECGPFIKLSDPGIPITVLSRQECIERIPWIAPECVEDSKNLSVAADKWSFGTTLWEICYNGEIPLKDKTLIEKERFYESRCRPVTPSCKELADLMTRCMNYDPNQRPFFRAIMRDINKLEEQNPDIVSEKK
T7 sequence (P28482 whole entry): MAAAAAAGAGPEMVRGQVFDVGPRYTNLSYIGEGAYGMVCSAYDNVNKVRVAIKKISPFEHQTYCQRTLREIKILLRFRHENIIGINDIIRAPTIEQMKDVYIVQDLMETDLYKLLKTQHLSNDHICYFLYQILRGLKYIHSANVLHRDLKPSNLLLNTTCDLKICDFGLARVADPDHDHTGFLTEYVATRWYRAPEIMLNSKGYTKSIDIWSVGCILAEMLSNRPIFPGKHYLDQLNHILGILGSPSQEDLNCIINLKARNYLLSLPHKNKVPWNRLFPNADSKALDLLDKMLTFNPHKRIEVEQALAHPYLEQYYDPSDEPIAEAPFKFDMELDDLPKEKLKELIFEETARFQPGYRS
T9 sequence (Q16513 whole entry): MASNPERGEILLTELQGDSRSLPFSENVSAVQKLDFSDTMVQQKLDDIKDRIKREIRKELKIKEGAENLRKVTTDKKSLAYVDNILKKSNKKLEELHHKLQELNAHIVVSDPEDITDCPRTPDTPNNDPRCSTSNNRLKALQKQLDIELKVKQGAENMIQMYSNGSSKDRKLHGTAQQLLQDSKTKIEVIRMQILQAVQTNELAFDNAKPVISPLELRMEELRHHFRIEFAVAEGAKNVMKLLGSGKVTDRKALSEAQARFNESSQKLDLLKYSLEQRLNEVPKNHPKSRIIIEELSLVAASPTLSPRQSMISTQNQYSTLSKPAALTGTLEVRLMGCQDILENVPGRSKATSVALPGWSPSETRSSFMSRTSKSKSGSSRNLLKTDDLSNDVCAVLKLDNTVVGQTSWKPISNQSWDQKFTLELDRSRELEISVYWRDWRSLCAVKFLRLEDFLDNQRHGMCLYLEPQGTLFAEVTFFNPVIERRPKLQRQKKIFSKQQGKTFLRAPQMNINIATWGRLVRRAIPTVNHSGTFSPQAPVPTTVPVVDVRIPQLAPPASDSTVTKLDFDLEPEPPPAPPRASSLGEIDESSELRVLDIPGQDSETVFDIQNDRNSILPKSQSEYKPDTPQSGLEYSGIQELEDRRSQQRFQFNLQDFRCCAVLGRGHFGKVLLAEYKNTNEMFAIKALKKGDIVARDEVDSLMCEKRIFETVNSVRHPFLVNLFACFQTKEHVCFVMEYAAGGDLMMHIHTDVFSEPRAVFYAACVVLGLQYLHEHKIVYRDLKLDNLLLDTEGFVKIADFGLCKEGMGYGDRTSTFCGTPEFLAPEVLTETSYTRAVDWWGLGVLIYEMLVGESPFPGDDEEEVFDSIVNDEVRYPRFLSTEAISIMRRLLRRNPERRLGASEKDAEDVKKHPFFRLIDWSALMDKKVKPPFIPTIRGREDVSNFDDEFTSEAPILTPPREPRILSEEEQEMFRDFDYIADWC
T6 sequence (P12931 whole entry): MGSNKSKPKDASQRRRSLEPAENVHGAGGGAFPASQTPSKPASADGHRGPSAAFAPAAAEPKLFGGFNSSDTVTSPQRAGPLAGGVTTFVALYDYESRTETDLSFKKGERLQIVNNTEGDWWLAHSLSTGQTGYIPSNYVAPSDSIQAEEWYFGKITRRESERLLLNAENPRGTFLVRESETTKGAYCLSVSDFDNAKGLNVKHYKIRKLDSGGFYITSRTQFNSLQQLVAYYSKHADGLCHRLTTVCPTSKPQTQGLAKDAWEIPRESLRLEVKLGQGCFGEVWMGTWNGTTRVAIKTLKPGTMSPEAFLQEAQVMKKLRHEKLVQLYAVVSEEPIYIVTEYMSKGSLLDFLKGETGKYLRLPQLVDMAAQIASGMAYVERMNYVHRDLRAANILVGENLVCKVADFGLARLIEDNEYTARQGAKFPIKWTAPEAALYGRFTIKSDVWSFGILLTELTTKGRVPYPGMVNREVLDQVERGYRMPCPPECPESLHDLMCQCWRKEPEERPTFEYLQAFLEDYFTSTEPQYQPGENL
Chain of S6K1 (P23443 whole entry): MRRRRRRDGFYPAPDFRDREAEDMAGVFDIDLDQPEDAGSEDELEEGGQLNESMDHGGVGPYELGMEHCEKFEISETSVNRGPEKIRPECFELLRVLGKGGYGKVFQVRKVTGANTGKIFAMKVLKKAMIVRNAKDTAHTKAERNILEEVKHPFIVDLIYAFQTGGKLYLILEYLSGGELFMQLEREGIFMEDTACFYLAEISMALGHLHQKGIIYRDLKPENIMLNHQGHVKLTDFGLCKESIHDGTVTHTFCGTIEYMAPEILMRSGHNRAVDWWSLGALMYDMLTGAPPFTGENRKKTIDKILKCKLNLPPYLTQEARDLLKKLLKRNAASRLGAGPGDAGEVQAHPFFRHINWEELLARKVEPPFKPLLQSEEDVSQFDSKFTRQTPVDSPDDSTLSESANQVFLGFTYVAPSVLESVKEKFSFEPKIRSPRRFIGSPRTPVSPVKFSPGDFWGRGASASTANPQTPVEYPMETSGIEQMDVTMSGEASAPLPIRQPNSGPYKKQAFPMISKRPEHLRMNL
T10 sequence (Q16512 whole entry): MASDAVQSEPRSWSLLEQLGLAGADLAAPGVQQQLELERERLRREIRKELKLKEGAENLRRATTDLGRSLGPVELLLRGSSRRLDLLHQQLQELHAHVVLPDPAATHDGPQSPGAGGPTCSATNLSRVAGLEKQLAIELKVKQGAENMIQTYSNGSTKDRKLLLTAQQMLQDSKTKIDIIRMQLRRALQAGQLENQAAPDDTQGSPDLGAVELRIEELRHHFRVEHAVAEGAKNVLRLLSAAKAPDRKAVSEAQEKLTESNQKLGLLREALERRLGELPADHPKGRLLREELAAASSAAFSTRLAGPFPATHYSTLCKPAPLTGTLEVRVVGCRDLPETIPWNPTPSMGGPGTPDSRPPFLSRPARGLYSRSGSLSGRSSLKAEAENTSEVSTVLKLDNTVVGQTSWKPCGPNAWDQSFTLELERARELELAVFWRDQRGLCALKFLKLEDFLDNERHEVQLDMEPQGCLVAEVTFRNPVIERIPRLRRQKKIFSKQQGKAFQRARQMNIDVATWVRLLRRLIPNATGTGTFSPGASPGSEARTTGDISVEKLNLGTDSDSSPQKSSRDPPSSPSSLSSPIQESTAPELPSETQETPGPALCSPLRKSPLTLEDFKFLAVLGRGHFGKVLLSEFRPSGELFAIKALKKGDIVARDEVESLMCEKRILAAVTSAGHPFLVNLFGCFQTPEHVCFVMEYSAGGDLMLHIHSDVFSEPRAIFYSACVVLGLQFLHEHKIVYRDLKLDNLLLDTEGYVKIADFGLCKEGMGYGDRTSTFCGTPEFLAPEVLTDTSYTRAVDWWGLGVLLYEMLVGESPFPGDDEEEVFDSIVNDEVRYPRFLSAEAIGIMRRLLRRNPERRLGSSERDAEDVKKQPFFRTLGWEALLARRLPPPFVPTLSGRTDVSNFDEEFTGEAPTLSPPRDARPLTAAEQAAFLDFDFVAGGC

N[C@H]1CC[C@H](Nc2cc(-c3cccc(NCc4cccc(F)c4)n3)c(Cl)cn2)CC1 [i-CDK9, N2′-(trans-4-aminocyclohexyl)-5′-chloro-N6-(3-fluorobenzyl)-2,4′-bipyridine-2′,6-diamine]
IC50 (CDK9-CycT1 [1]): ≤ 0.0004 µM | fold lower activity toward CDK1-CycB, CDK2-CycA, CDK4-CycD1, CDK7-CycH-MAT1 and CDK8-CycC compared to CDK9-CycT1 (CDK9-CycT1 [1]; selectivity): at least 600 fold | % Retention on Solid Support ([2]; 1 µM i-CDK9): 85% | % Retention on Solid Support ([2]; 10 µM i-CDK9): 81% | inhibition of Ser2 phosphorylation (CDK9-CycT1 [3]): mostly inhibited | remaining binding at 1 µM (CDK9; 1 µM i-CDK9): 5.1% | remaining binding at 10 µM (CDK9; 10 µM i-CDK9): 0% | IC50 (IGF1R): > 10 µM | IC50 (ALK): > 10 µM | IC50 (ZAP70): > 10 µM | IC50 (FGFR2): > 10 µM | IC50 (SRC): > 10 µM | IC50 (ERK2): > 10 µM | IC50 (CLK1): 0.525 µM | IC50 (S6K1): > 10 µM | IC50 (PKN2): > 10 µM | IC50 (PKN1): > 10 µM | IC50 (IRAK4): > 10 µM
